Patent US20180051257A1, “METHODS FOR GENERATING ALVEOLAR TYPE II CELLS” (priority 2016, published 2018)

Key:
RB20 mESCs [1] = experiment: Induction of mESCs to definitive endoderm (DE)-like cells by IDE2: RT-PCR of DE markers and phase contrast morphology; type: cell-based, mouse
Excerpt: (§1) To produce endoderm (DE) like cells, RB20 mESCs (embryonic stem cells) were maintained in adherent culture conditions on gelatin-coated dishes, prior to induction of differentiation. As depicted in FIG. 2, an overview of the mESCs maintenance and differentiation protocol. Differentiation of the cells was initiated via a reduction in concentration of KoSR; after three days, cells were induced by IDE2 for six days. In the next step, DE cells differentiated into alveolar type II-like (AT II-like) cells using seven different combinations of three inductive factors: FGF2 (F), hydrocortisone (H) and A549 conditioned medium (CM) during 9 days. The mESCs were cultured in media with reducing concentration of serum for 3 days, for example, 20%, 10% and 5% fetal bovine serum (FBS) in day one, two and three, respectively. Then, it was induced by 200 nM small inducing molecule IDE2 for 6 days. At the end of this first step, DE like cells were characterized for the expression of two DE markers, Sox17 and Foxa2.
The morphology of the said markers in the DE-like cells was assayed by phase contrast microscopy.

RB20 mESCs [2] = experiment: Foxa2 protein expression in mESC-derived DE cells by flow cytometric analysis; type: cell-based, mouse; conditions: mESC-derived DE cells vs mESCs
Excerpt: as §1
Lack of expression of Foxa2 could be seen in mESC cells.

[3] = 200 nM IDE2, day 6, compared to mESCs negative control group, P<0.05

## O=C(O)CCCCCC(=O)NN=C1CCCC1 [IDE2]
RB20 mESCs [1]; [3]
  expression level of Foxa2 (RT-PCR): increased expression levels
  expression level of Sox 17 (RT-PCR): increased expression levels
RB20 mESCs [1]; day 6 of IDE2 induction
  cell morphology in phase contrast micrograph: epithelial morphology characteristic of DE cells
RB20 mESCs [2]
  numbers of cells that expressed DE-specific marker Foxa2 at the protein level: increase in numbers of cells
